According to patent US9421204B2, “Oligomer modified diaromatic substituted compounds” (priority 2010, dated 2016):
“And” between values parts separate entries of the source, which are not always exact repeats. Equal entries are not always repeated. Where two headings read alike, the source gives them in different places.

Tests used:
CEM-SS cells = assay: Toxicity XTT in CEM-SS cells (drug resistant strain assay); type: cell-based; conditions: read-out: TC50 (the source's name)
Description: (§1) Cells were prepared as described above. Virus Preparation—The wild type NL4-3 and drug resistant A17 viruses were obtained from the NIH AIDS Research and Reference Reagent Program and stock virus pools were produced in CEM-SS cells. Amino acid substitutes of L100I, Y181C and P23L were introduced by site-directed mutagenesis into pN L4-3 and stock virus pools were produced in CEM-SS cells. A pretitered aliquot of virus was removed from the freezer (−80° C.) and allowed to thaw slowly to room temperature in a biological safety cabinet. Virus was re-suspended and diluted into tissue culture medium such that the amount of virus added to each well in a volume of 50 μL was the amount determined to yield 85 to 95% cell killing at 6 days post-infection.
(§2) Plate Format—Each plate contains cell control wells (cells only), virus control wells (cells plus virus), drug toxicity wells (cells plus drug only), drug colorimetric control wells (drug only) as well as experimental wells (drug plus cells plus virus). Samples were tested in triplicate with eleven half-log dilutions per compound. Efficacy and Toxicity XTT—Following incubation at 37° C. in a 5% CO2 incubator, the test plates were stained with the tetrazolium dye XTT (2,3-bis(2-methoxy-4-nitro-5-sulfophenyl)-5-[(phenylamino)carbonyl]-2H-tetrazolium hydroxide). XTT-tetrazolium was metabolized by the mitochondrial enzymes of metabolically active cells to a soluble formazan product, allowing rapid quantitative analysis of the inhibition of HIV induced cell killing by anti-HIV test substances. XTT solution was prepared daily as a stock of 1 mg/mL in RPMI1640. Phenazine methosulfate (PMS) solution was prepared at 0.15 mg/mL in PBS and stored in the dark at −20° C. XTTIPMS stock was prepared immediately before use by adding 40 μL of PMS per ml of XTT solution. Fifty microliters of XTT/PMS was added to each well of the plate and the plate was re-incubated for 4 hours at 37° C. Plates were sealed with adhesive plate sealers and shaken gently or inverted several times to mix the soluble formazan product and the plate was read spectrophotometrically at 450/650 nm with a Molecular Devices Vmax plate reader.
(§3) Data Analysis—Raw data was collected from the Softmax Pro 4.6 software and imported into a Excel XLFit4 spreadsheet for analysis by four parameter curve fit calculations. Both antiviral activity and toxicity are calculated.

[1] = as above; type: cell-based; conditions: human, CEM-SS cells, read-out: TC50 (the source's name)
Description: as §1, §2, §3

A17K103N/Y181C = assay: Anti-HIV cytoprotection assay, drug resistant A17; type: cell-based; conditions: HIV-1 strain A17K103N/Y181C, CEM-SS cells
Description: as §1, with “cabinet.” for “cabinet. Virus was re-suspended and diluted into tissue culture medium such that the amount of virus added to each well in a volume of 50 μL was the amount determined to yield 85 to 95% cell killing at 6 days post-infection.”
as §2, §3

NL4-3P236L = assay: Anti-HIV cytoprotection assay, drug resistant NL4-3 P236L; type: cell-based; conditions: HIV-1 strain NL4-3P236L; for EC50: CEM-SS cells
Description: as §1, §2, §3

NL4-3 = assay: Anti-HIV cytoprotection assay, wild type NL4-3; type: cell-based, HIV-1; conditions: for EC50: HIV-1 strain NL4-3, CEM-SS cells, read-out: EC50
Description: as §1, with “cabinet.” for “cabinet. Virus was re-suspended and diluted into tissue culture medium such that the amount of virus added to each well in a volume of 50 μL was the amount determined to yield 85 to 95% cell killing at 6 days post-infection.”
as §2, §3

NL4-3Y181C = assay: Anti-HIV cytoprotection assay, drug resistant NL4-3 Y181C; type: cell-based; conditions: HIV-1 strain NL4-3Y181C; for EC50: CEM-SS cells
Description: as §1, §2, §3

HIV-1RF = assay: Anti-HIV-1 cytoprotection assay in CEM-SS cells; type: cell-based
Description: Cell Preparation—CEM-SS cells were passaged in T-75 flasks prior to use in the antiviral assay. On the day preceding the assay, the cells were split 1:2 to assure they were in an exponential growth phase at the time of infection. Total cell and viability quantification was performed using a hemocytometer and Trypan Blue dye exclusion. […] The cells were resuspended at 5×10^4 cells per ml in tissue culture medium and added to the drug containing microtiter plates in a volume of 50 μL.
Virus Preparation—The virus used for the assay was the lymphocyte-tropic virus strain HIV-IRF. The virus was obtained from the NIH AIDS Research and Reference Reagent Program and stock virus pools were produced in CEM-SS cells. A pretitred aliquot of virus was removed from the freezer (−80° C.) and allowed to thaw slowly to room temperature in a biological safety cabinet.
(§4) Plate Format—Each plate contains cell control wells (cells only), virus control wells (cells plus virus), drug toxicity wells (cells plus drug only), drug colorimetric control wells (drug only) as well as experimental wells (drug plus cells plus virus). Samples were tested in triplicate with eleven half-log dilutions per compound.
as §2, with “Efficacy and” for “Plate Format—Each plate contains cell control wells (cells only), virus control wells (cells plus virus), drug toxicity wells (cells plus drug only), drug colorimetric control wells (drug only) as well as experimental wells (drug plus cells plus virus). Samples were tested in triplicate with eleven half-log dilutions per compound. Efficacy and”, “hydroxide). XTT-tetrazolium is metabolized by” for “hydroxide). XTT-tetrazolium was metabolized by”, “−20° C. XTT/PMS stock was” for “−20° C. XTTIPMS stock was”, “the soluble fosmazan product and” for “the soluble formazan product and”
Anti-HIV-1 Cytopathic Effects Inhibition Assay Evaluations: Eight compounds were evaluated against the RF strain of HIV-1 in CEM-SS cells using a 12 concentration dose response curve.
as §3

NL4-3L100I = assay: Anti-HIV cytoprotection assay, drug resistant NL4-3 L100I; type: cell-based; conditions: HIV-1 strain NL4-3L100I, CEM-SS cells
Description: as §1, §2, §3

[2] = Toxicity XTT in CEM-SS cells (cytoprotection assay); type: cell-based; conditions: human, CEM-SS cells, XTT; read-out: CEM-SS TC50
Description: Cell Preparation—CEM-SS cells were passaged in T-75 flasks prior to use in the antiviral assay. On the day preceding the assay, the cells were split 1:2 to assure they were in an exponential growth phase at the time of infection. Total cell and viability quantification was performed using a hemocytometer and Trypan Blue dye exclusion. Cell viability was greater than 95% for the cells to be utilized in the assay. The cells were resuspended at 5×10^4 cells per ml in tissue culture medium and added to the drug containing microtiter plates in a volume of 50 μL.
as §4
as §2, with “Efficacy and” for “Plate Format—Each plate contains cell control wells (cells only), virus control wells (cells plus virus), drug toxicity wells (cells plus drug only), drug colorimetric control wells (drug only) as well as experimental wells (drug plus cells plus virus). Samples were tested in triplicate with eleven half-log dilutions per compound. Efficacy and”, “hydroxide). XTT-tetrazolium is metabolized by” for “hydroxide). XTT-tetrazolium was metabolized by”, “−20° C. XTT/PMS stock was” for “−20° C. XTTIPMS stock was”, “the soluble fosmazan product and” for “the soluble formazan product and”
as §3

[3] = run with HIV-1 strain A17K103N/Y181C
[4] = run with HIV-1 strain NL4-3L100I
[5] = run with HIV-1 strain NL4-3P236L
[6] = run with HIV-1 strain NL4-3Y181C
[7] = Human immunodeficiency virus 1, CEM-SS

CC(C)Nc1cccnc1N1CCN(C(=O)c2cc3cc(NS(C)(=O)=O)ccc3[nH]2)CC1 [Delavirdine, N-[2-({4-[3-(propan-2-ylamino)pyridin-2-yl]piperazin-1-yl}carbonyl)-1H-indol-5-yl]methanesulfonamide, reference compound]
CC50 (CEM-SS cells; [3]): > 1000 nM | CC50 (CEM-SS cells; run with HIV-1 strain NL4-3): > 1000 nM | CC50 (CEM-SS cells; [4]): > 1000 nM | CC50 (CEM-SS cells; [5]): > 1000 nM | CC50 (CEM-SS cells; [6]): > 1000 nM | CC50 [1, 3]: > 500 nM | CC50 ([1]; run with HIV-1 strain NL4-3): > 500 nM | CC50 [1, 4]: > 500 nM | CC50 [1, 5]: > 500 nM | CC50 [1, 6]: > 500 nM | EC50 (A17K103N/Y181C): > 1000 nM | EC50 (A17K103N/Y181C; [7]): > 500 nM | TI (NL4-3P236L): >2.0 | EC50 (NL4-3P236L): 500 nM | EC50 (NL4-3P236L; [7]): > 500 nM | TI (NL4-3; HIV-1 strain NL4-3): >100.0 | EC50 (NL4-3): 10 nM | EC50 (NL4-3; Human immunodeficiency virus 1, NL43, CEM-SS): 5 nM | TI (NL4-3Y181C): >1.7 | EC50 (NL4-3Y181C): 580 nM | EC50 (NL4-3Y181C; [7]): > 500 nM

Cc1cn([C@H]2C[C@H](N=[N+]=[N-])[C@@H](CO)O2)c(=O)[nH]c1=O [AZT, reference compound]
CC50 [1, 3]: > 500 nM | EC50 (HIV-1RF; CEM-SS cells, XTT, read-out: CEM-SS/HIV-1RF EC50): 10 nM | EC50 (HIV-1RF; Human immunodeficiency virus 1, CEM-SS, CEM-SS cells, XTT, read-out: CEM-SS/HIV-1RF EC50): 6 nM | EC50 (HIV-1RF; Human immunodeficiency virus 1, CEM-SS, RF strain of HIV-1 in CEM-SS cells, control compound, read-out: EC50): 6 nM | EC50 (A17K103N/Y181C; [7]): 3 nM | EC50 (NL4-3L100I): 6 nM | EC50 (NL4-3L100I; [7]): 3 nM | CC50 [2]: > 1000 nM | TI (NL4-3P236L): >71.4 and >50.0 | EC50 (NL4-3Y181C): 1 nM | EC50 (NL4-3Y181C; [7]): 2 nM
